In assay [1] the test system is postmenopausal women with frequent, moderate to severe vasomotor symptoms (hot flashes). Kind of assay: Phase 2a study: hot flash frequency, severity and composite score. Format: in vivo, human (postmenopausal women). Conditions: 10 mg. The source says:
A phase 2a study was undertaken to assess the effect of (R)-6-(2-(ethyl(4-(2-(ethylamino)ethyl)benzyl)amino)-4-methoxyphenyl)-5,6,7,8-tetrahydronaphthalen-2-ol dihydrochloride (referred to as “drug” in tables below) to alleviate hot flashes in postmenopausal women. The study design and objectives are detailed below.
This is a randomized, placebo-controlled, double-blind, parallel-group, Phase 2, multi-center, dose-finding study to evaluate the effects of (R)-6-(2-(ethyl(4-(2-(ethylamino)ethyl)benzyl)amino)-4-methoxyphenyl)-5,6,7,8-tetrahydronaphthalen-2-ol dihydrochloride in the treatment of vasomotor symptoms in postmenopausal women.
A total of 100 eligible patients will be randomized to receive one of 5 blinded treatment regimens. (R)-6-(2-(ethyl(4-(2-(ethylamino)ethyl)benzyl)amino)-4-methoxyphenyl)-5,6,7,8-tetrahydronaphthalen-2-ol dihydrochloride at doses 0, 10, 25, 50 or 100 mg will be dosed for 28-days.
Patients will document in real time hot flash frequency and severity according to a predetermined scale, in the provided electronic or paper Study Diary. Study Diary entries of hot flash frequency and severity and associated symptoms will be reviewed at each study visit. Serum markers of estrogen effect will be measured at specific study visits while on treatment.
The efficacy endpoints assessed are: • Change in frequency of hot flashes over time • Change in severity of hot flashes over time; • Change in composite score of hot flashes over time (frequency×severity)
(R)-6-(2-(ethyl(4-(2-(ethylamino)ethyl)benzyl)amino)-4-methoxyphenyl)-5,6,7,8-tetrahydronaphthalen-2-ol dihydrochloride was provided by sponsor in capsule form for oral administration. All doses (0, 10, 25, 50 and 100 mg) were provided as identical presentations. Each patient was provided with 2 containers of 28-capsules each at the start of treatment and took one capsule from each container every day for 28-days. Placebo contained the same excipients as active medication, but without (R)-6-(2-(ethyl(4-(2-(ethylamino)ethyl)benzyl)amino)-4-methoxyphenyl)-5,6,7,8-tetrahydronaphthalen-2-ol dihydrochloride. The patients were instructed to take the capsules orally in the fasted state (morning).
Changes in the efficacy endpoints of frequency, severity, and composite score of hot flashes over time; associated hot flash symptoms (palpitations, insomnia, joint aches, and headaches), PD markers of estrogen effect (FSH, LH, and lipid profile), drug levels, and MRS were to be summarized using descriptive statistics. Frequency, severity, and composite score of hot flashes over time were to be analyzed using repeated measures analysis of variance (ANOVA) with factors for treatment (treatment groups), time (study day) and their interaction. A linear trend test for treatment groups (placebo, and 10, 25, 50, 100 mg doses of drug) and for study day as well as any potential interaction between the two was to be included as part of the analyses by including both dose and time as continuous variables in the ANOVA model. Pair-wise comparisons of change from baseline were to be tested between the placebo group and each drug dose group for each timepoint; the mean difference together with a 95% confidence interval of the difference was to be presented for placebo compared with each active treatment group. Nominal p-values at Week 4 were to be presented. In addition, graphical presentations of mean (±standard error of the mean) and percent group responses over time together with repeated measures ANOVA to assess potential trend in responses over time in each dose group were to be presented. For the associated vasomotor symptoms (palpitations, insomnia, joint aches, and headaches collected in the patient diaries), patient and event frequencies were to be summarized by treatment week and treatment group.
Hot flashes were also scored according to their severity with a mild hot flash scored a “1”, a moderate hot flash scored a “2” and a severe hot flash scored a “3”. […]

For assay [2], the system named is mammary carcinoma cells (MCF-7). Briefly: Estrogen-dependent proliferation of MCF-7 cells (preclinical data). Format: cell-based. The source says:
The results of a phase 2a clinical study assessing the effects of the selective estrogen receptor modulator (SERM) (R)-6-(2-(ethyl(4-(2-(ethylamino)ethyl)benzyl)amino)-4-methoxyphenyl)-5,6,7,8-tetrahydronaphthalen-2-ol on women suffering from hot flushes are reported herein.

Consider `CCNCCc1ccc(CN(CC)c2cc(OC)ccc2[C@@H]2CCc3cc(O)ccc3C2)cc1` [compound of formula I, (R)-6-(2-(ethyl(4-(2-(ethylamino)ethyl)-benzyl)amino)-4-methoxyphenyl)-5,6,7,8-tetrahydronaphthalen-2-ol], for which the “hot flush frequency reduction” value is −75% in assay [1] (cohort with 2 hour postdose plasma concentration 0.43 ng/mL to 0.53 ng/mL) and −77% in assay [1] (higher concentration cohort, 2 hour postdose plasma concentration 0.66 ng/mL to 1.34 ng/mL). Further, the “antagonism of estradiol stimulation on MCF-7 cells” value in assay [2] is listed as “potent antagonist of estradiol stimulation”. In addition, the “stimulation of estrogen-dependent proliferation of MCF-7 cells (agonism)” value in assay [2] (compared with prototypical estrogen agonists (e.g. estradiol)) is on record as “does not stimulate estrogen-dependent proliferation”.
